The record followed here is ChEMBL document CHEMBL4840342, “The spectrum between substrates and inhibitors: Pinpointing the binding mode of dengue protease ligands with modulated basicity and hydrophobicity” (Bioorg Med Chem, 2021).

Residues, ends and D or L forms follow the SMILES beside them. *: point of attachment. NHBn = c1ccc(CN*)cc1; Bz = O=C(c1ccccc1)*; NHiPr = CC(C)N*

Assay [1] has as its target Genome polyprotein (dengue virus type 2) (UniProt P29990). Nature of the assay: Inhibition of Dengue virus 2 NS2B-NS3 protease using Abz-Nle-Lys-Arg-Arg-Ser-Tyr(3-NO2)-NH2 as substrate at 50 uM preincubated with enzyme for 15 mins followed by substrate addition and measured for 15 mins by FRET assay relative to control. Conditions: time 30.0 min.
In a further assay the target is Genome polyprotein (dengue virus type 2, UniProt P29990). The experiment in a line: Inhibition of Dengue virus 2 NS2B-NS3 protease using Abz-Nle-Lys-Arg-Arg-Ser-Tyr(3-NO2)-NH2 as substrate preincubated with enzyme for 15 mins followed by substrate addition and measured for 15 mins by FRET assay relative to control.

One may read the inhibition as the relative decrease from the control value, in per cent. As usually defined, the IC50 is the concentration needed to halve the response being measured. Turning to `NCCCC[C@H](NC(=O)c1ccccc1)C(=O)N[C@H](C(=O)N[C@H](C(N)=O)C1CCCCC1)c1ccc(OCc2ccccc2)cc1`, the inhibition in assay [1] amounted to 93.1%. Besides, the IC50 on Genome polyprotein came to 9.9 µM.

Take `N=C(N)NCCC[C@H](NC(=O)c1ccccc1)C(=O)N[C@@H](CCCCN)C(=O)N[C@@H](C(=O)NCc1ccc(C(N)=O)cc1)c1ccc(OCc2ccccc2)cc1`: the inhibition in assay [1] turned out to be 103%. The compound further had an IC50 on Genome polyprotein of 0.4 µM.

On to `NCCCC[C@H](NC(=O)c1ccccc1)C(=O)N[C@@H](C(=O)N[C@H](C(N)=O)C1CCCCC1)c1ccc(OCc2ccccc2)cc1`, for which the inhibition in assay [1] stood at 99.6%. At Genome polyprotein, 9.4 µM corresponded to half-maximal inhibition (IC50). The matching figures for `NCCCC[C@H](NC(=O)[C@@H](NC(=O)c1ccccc1)c1ccc(OCc2ccccc2)cc1)C(=O)N[C@@H](C(N)=O)c1ccc(OCc2ccccc2)cc1`: 98.8% and 6.6 µM. The corresponding values for `N=C(N)NCCC[C@H](NC(=O)c1ccccc1)C(=O)N[C@@H](CCCCN)C(=O)N[C@@H](C(=O)NCc1ccc(CN)cc1)c1ccc(OCc2ccccc2)cc1` are 99.7% and 0.3 µM. For `N=C(N)NCCC[C@H](NC(=O)c1ccccc1)C(=O)N[C@@H](CCCCN)C(=O)NCc1ccc(OCc2ccccc2)cc1`, the inhibition in assay [1] was 63.3%. Take `N=C(N)NCCC[C@H](NC(=O)c1ccccc1)C(=O)N[C@@H](Cc1ccc(N)cc1)C(=O)NCc1ccc(OCc2ccccc2)cc1`: the inhibition in assay [1] was determined as 69.3%.

For the compound `NCCCC[C@H](NC(=O)c1ccccc1)C(=O)N[C@H](Cc1ccc(N)cc1)C(=O)NCc1ccc(OCc2ccccc2)cc1`, in assay [1], the inhibition was determined as 94.5%. Further, the IC50 against Genome polyprotein turned out to be 35.8 µM. The matching figures for `N=C(N)Nc1ccc(C[C@H](NC(=O)[C@@H](NC(=O)c2ccccc2)c2ccc(OCc3ccccc3)cc2)C(=O)N[C@@H](C(N)=O)c2ccc(OCc3ccccc3)cc2)cc1`: 101% and 1.7 µM. As to `CC[C@@H](C)[C@H](NC(=O)[C@H](NC(=O)[C@H](CCCCN)NC(=O)[C@H](CCCNC(=N)N)NC(=O)c1ccccc1)c1ccc(OCc2ccccc2)cc1)C(N)=O`, the inhibition in assay [1] was determined as 58.1%.

As to `CC(C)NC(=O)[C@H](CCCCN)NC(=O)[C@H](CCCNC(=N)N)NC(=O)c1ccccc1` (Bz-Arg-Lys-NHiPr), in assay [1], the inhibition stood at 28.8%. Regarding `N=C(N)NCCC[C@H](NC(=O)c1ccccc1)C(=O)N[C@@H](CCCCN)C(=O)Nc1ccc(OCc2ccccc2)cc1`, the inhibition in assay [1] amounted to 59.8%. Still for that read-out and setting: the result for `N=C(N)NCCC[C@H](NC(=O)c1ccccc1)C(=O)N[C@@H](CCCCN)C(=O)NCCc1ccc(OCc2ccccc2)cc1` reads 63.9%.

`N=C(N)NCCC[C@H](NC(=O)c1ccccc1)C(=O)N[C@@H](CCCCN)C(=O)N[C@@H](C(=O)N[C@H](C(N)=O)C1CCCCC1)c1ccc(OCc2ccccc2)cc1`: the inhibition in assay [1] was determined as 95.9%. For the same compound, the IC50 on Genome polyprotein was 13.7 µM. With `NCCCC[C@H](NC(=O)c1ccccc1)C(=O)N[C@@H](Cc1ccc(N)cc1)C(=O)NCc1ccc(OCc2ccccc2)cc1`, the inhibition in assay [1] was less than 20%.

Regarding `N=C(N)NCCC[C@H](NC(=O)c1ccccc1)C(=O)N[C@@H](CCCCN)C(=O)NCc1ccccc1` (Bz-Arg-Lys-NHBn), the inhibition in assay [1] was found to be 41.3%. On the same count and under the same terms, the result for `N=C(N)NCCC[C@H](NC(=O)c1ccccc1)C(=O)N[C@H](Cc1ccc(N)cc1)C(=O)NCc1ccc(OCc2ccccc2)cc1` reads 29.1%.

Turning to `NCCCC[C@H](NC(=O)c1ccccc1)C(=O)N[C@@H](C(=O)N[C@@H](C(N)=O)C1CCCCC1)c1ccc(OCc2ccccc2)cc1`, in assay [1], the inhibition is 98%. On Genome polyprotein, this compound showed an IC50 of 7.9 µM.
